Where two headings read alike, the source gives them in different places.

Here are results for four compounds from patent publication US7709700B2, “Method for improving plant transformation efficiency by adding copper ion” (Japan Tobacco Inc., priority 2003, dated 2010).

In test [1] the test system is shoots having emerged from ripe seeds of barley. As to conditions: cited from earlier work.
Test [2] has as its system immature embryos of maize (cultivar: A188). Particulars: 3 days.
Test [3] concerns immature embryos of maize (cultivar: H99).
The test system of test [4] is immature embryos of maize (cultivar: A188). As to conditions: co-culture 1 week on media containing copper sulfate, then 1 week on PPT selective medium; FIG. 3.
Method: (§1) These calli were cultured on the same medium containing 10 mg/l PPT for 6 weeks under the same conditions. Grown PPT-resistant calli were seeded on LSZ regeneration medium (LSD 1.5 medium deprived of 2,4-D and supplemented with 5 mg/l zeatin) and incubated at 25° C. under illumination for 2-3 weeks. Leaf segments of regenerated plants were excised and assessed for the expression of the GUS gene by X-gluc.
After co-culture for 1 week, the calli grown from immature embryos (cultivar: A188) cultured on a selective medium containing PPT for 1 week were evaluated on a scale of four ratings from 0 (no callus formed) to 3 (the entire scutellum formed callus). […] Further selection on a medium containing PPT and incubation of the resulting calli in a regeneration medium containing PPT gave PPT-resistant plants. Leaf segments of these plants were excised and assessed for the expression of the GUS gene.
Test [5] shares this test system.
From the text: Transformation efficiency can be calculated by e.g., counting the number of regenerated plants expressing the GUS gene as transformants among those obtained from inoculated immature embryos and dividing the total number by the number of inoculated immature embryos. Alternatively, it can also be calculated by counting the number of regenerated plants showing resistance against a selective pressure as transformants and dividing the total number by the number of inoculated immature embryos.
as §1
After co-culture for 1 week, the calli grown from immature embryos (cultivar: A188) cultured on a selective medium containing PPT for 1 week were evaluated on a scale of four ratings from 0 (no callus formed) to 3 (the entire scutellum formed callus).
For test [6], the system named is immature embryos of rice (cultivar: IR64). Particulars: 5 μM copper sulfate in co-culture medium, 1 week; FIG. 4.
Method: Into an Eppendorf tube containing aseptically collected immature embryos (cultivar: IR64) was added 1 ml of the Agrobacterium suspension and the tube was agitated for 30 seconds in a vortex mixer and then allowed to stand at room temperature for 5 minutes.
Test [7] deals with immature embryos of rice (cultivar: Yukihikari). As to conditions: 0-50 μM in inoculum liquid media; co-culture one week; three experiments; FIG. 7.
Method: An Agrobacterium tumefaciens super-binary vector designated LBA4404 (pSB134) cultured on AB medium containing 50 mg/l hygromycin and 50 mg/l spectinomycin for 3 to 4 days was scraped with a platinum loop and suspended at a concentration of about 10^9 cfu/ml in 1 ml of AA1 liquid medium containing 100 μM acetosyringone and 0-50 μM CuSO4.5H2O or copper gluconate. Into an Eppendorf tube containing aseptically collected immature embryos (cultivar: Yukihikari) was added 1 ml of the Agrobacterium suspension and the tube was agitated for 30 seconds in a vortex mixer and then allowed to stand at room temperature for 5 minutes. The immature embryos were seeded on nN6-As medium and incubated in darkness at 25° C. for one week.
The weight of co-cultured immature embryos was measured.
Test [8] has as its system regenerated plants of maize (cultivar: A188). As to conditions: 10 μM in LSZ regeneration medium, 3 weeks; FIG. 8.
Method: The transformed callus was cut into a size of about 2 mm and plated on LSZ regeneration medium containing 10 μM CuSO4.5H2O or copper gluconate, and PPT. After incubation at 25° C. under illumination for 3 weeks, the leaf length of regenerated plants was measured.
Test [9] deals with regenerated plants of rice (cultivar: Yukihikari). Particulars: 10 μM in N6R regeneration medium, 3 weeks; FIG. 9.
Method: Immature embryos of rice (cultivar: Yukihikari) were inoculated with Agrobacterium tumefaciens LBA4404 (pSB134) and cultured on nN6CC medium (N6 salts, N6 vitamins, 0.5 g/l casamino acids, 0.5 g/l L-proline, 1 mg/l 2,4-D, 0.5 mg/l NAA, 0.1 mg/l 6BA, 20 g/l sucrose, 55 g/l sorbitol, 250 mg/l cefotaxime, 250 mg/l carbenicillin, 5 g/l Gelrite, pH 5.8) containing hygromycin to give a transformed callus. The transformed callus was cut into a size of about 2 mm and seeded on N6R regeneration medium (N6 salts with major salts reduced to ½, N6 vitamins, AA amino acids, 1 g/l casamino acids, 0.5 mg/l kinetin, 20 g/l sucrose, 30 g/l sorbitol, 4 g/l Gelrite, pH 5.8) containing 10 μM CuSO4.5H2O or copper gluconate, and hygromycin. After incubation at 25° C. under illumination for 3 weeks, the leaf length of regenerated plants was measured.
In test [10] the test system is immature embryos of maize (cultivar: H99). As to conditions: media containing 1-10 μM copper sulfate (1-100 μM tested); but slightly; cited from earlier work.
Test [11] has as its system anthers of wheat. Particulars: medium containing 10 mg/l copper sulfate and 2.5-5 mg/l silver nitrate; cited from earlier work.
The subject of test [12] is calli obtained by culturing immature embryos of barley. As to conditions: media containing copper sulfate; cited from earlier work.
The subject of test [13] is calli obtained by culturing immature embryos of rice. As to conditions: media containing copper sulfate; cited from earlier work.
Test [14] deals with immature embryos of maize (cultivar: A188). Put plainly: Callus formation of immature embryos after 7 days on co-culture media. The test is classed as cell-based. Particulars: 1 week, FIG. 6.
Setting [15] is: 1 μM CuSO4 in co-culture medium, 13 inoculated immature embryos.
The mark [16] stands for this setting: 5 μM CuSO4 in co-culture medium, 13 inoculated immature embryos.
Setting [17] is: 10 μM CuSO4 in co-culture medium, 14 inoculated immature embryos.

Take `OC[C@H]1O[C@H](O[C@H]2[C@H](O)[C@@H](O)C(O)O[C@@H]2CO)[C@H](O)[C@@H](O)[C@@H]1O` (mixture of isomers) [maltose, reference compound]: the “brown tissue when shoot meristematic cultures are induced” value in [1] is recorded as “effective for decreasing brown tissue”.
Turning to `O=S(=O)([O-])[O-].[Cu+2]` [copper sulfate], the “area of the scutellum showing transient expression of the GUS gene vs control medium” value is “wider area” in test [2] (1, 5 and 10 μM copper sulfate in co-culture media, with or without heat/centrifugation pretreatment, FIG. 1); “wider area” in test [6]. Moreover, the “average callus diameter greater than that on control co-culture medium” value in [3] is at least 2 mm. In addition, the “PPT-resistant callus formation vs control medium” value in test [4] is “higher callus formation”. Besides, the results for the “Transformation efficiency (B/A, %)” value in test [5] (1 μM CuSO4 in co-culture medium), in test [5] (5 μM CuSO4 in co-culture medium) and in [5] (10 μM CuSO4 in co-culture medium) were 15.4%, 46.2% and 35.7%, respectively. The figures for the “Number of GUS-positive plants (B)” value in [5] (setting [15]), in [5] (setting [16]) and in [5] (setting [17]) were 2, 6 and 5, respectively. Moreover, the “Number of regenerated plants” value in test [5] (setting [15]) is recorded as 2; in test [5] (setting [16]) it was 6; in test [5] (setting [17]) it was 6. For the same compound, the “growth (weight) of co-cultured immature embryos vs control medium” value in test [7] is reported as “more active growth”. For the same compound, the “leaf length of regenerated plants vs control regeneration medium” value in test [8] and in test [9] was “significantly longer” in each case. Also, in [1], the “shoot growth when shoot meristematic cultures are induced” value is on record as “effective for promoting shoot growth”. Moreover, in test [1] (medium containing 5 μM copper sulfate and 30 g/l maltose), the “induction ratio of shoot meristematic cultures (SMCs)” value is “increases”. For the same compound, the “callus formation from immature embryos” value in test [10] is “improved”. The embryoid formation result in test [11] was “increases”. In addition, the “regeneration ratio or number of regenerated plants per callus” value in test [12] and in test [13] was “increases” in each case.
As to `O=[N+]([O-])[O-].[Ag+]` [silver nitrate, reference compound], the “callus growth vs control medium” value in test [3] (5 μM silver nitrate in co-culture medium, 3 days, then about 4 weeks without selection, FIG. 2) is “nearly comparable”.
In the case of copper gluconate, in test [14] (1, 5 and 10 μM copper gluconate in co-culture media), the “callus formation vs medium lacking copper gluconate” value was “higher callus formation”. For the same compound, the “callus formation vs control” value in [14] (5 and 10 μM copper gluconate in co-culture media) is “significantly higher callus formation”. Besides, in test [2] (1, 5 and 10 μFM copper gluconate in co-culture media, heat/centrifugation pretreatment, FIG. 5), the “area of the scutellum showing transient expression of the GUS gene vs control medium” value is recorded as “wider area”. In addition, the “growth (weight) of co-cultured immature embryos vs control medium” value in test [7] is on record as “more active growth”. For the same compound, the “leaf length of regenerated plants vs control regeneration medium” value in [8] and in [9] was “significantly longer” each time.
